Experimental data: patent publication US6583155B2, “Method for treating allergies using substituted pyrazoles” (priority 2000, dated 2003)
“Also recorded” adds a separate entry of the source.

How the values were obtained:
[1] = test system: human T cells (PBMC from allergic donors) stimulated with ragweed extracts; assay: Ex vivo human T cell-proliferation assay, ragweed allergen extracts; conditions: PBMC from allergy donors, 7 days culture, 3H-thymidine incorporation
[2] = test system: human T cells (PBMC from allergic donors) stimulated with house dust mite extracts; assay: Ex vivo human T cell-proliferation assay, house dust mite allergen extracts
[3] = test system: invariant chain (li) degradation in PBMC from human blood; assay: Monitoring cathepsin S inhibition in human blood: p10li fragment by Western blot; conditions: incubation for 24 h, SDS-PAGE / Western blot
[4] = test system: human T cells (PBMC) stimulated with ConA; assay: Ex vivo human T cell-proliferation assay, ConA (pan-T cell mitogen) control; conditions: pan-T cell mitogen specificity control

Row | Compound | T cell proliferative responses to ragweed extracts (short and giant) [1] | T cell proliferative responses to Der f extract ([2]; PBMC from an allergy donor, titrated doses of compound, 7 days, 3H-thymidine incorporation (FIG. 3)) | p10li fragment of invariant chain (block in degradation of li) [3] | T cell proliferative responses to house dust mite extracts (Der p and Der f) ([2]; PBMC from allergy donors, 7 days culture, 3H-thymidine incorporation) | T cell proliferative responses induced by ConA [4]
1 | CS(=O)(=O)N1CCc2c(c(-c3ccc(Br)cc3)nn2CC(O)CN2CCC(n3c(=O)[nH]c4ccc(Cl)cc43)CC2)C1 (stereo not shown) [Example 8, 1-(1-{3-[3-(4-Bromo-phenyl)-5-methanesulfonyl-4,5,6,7-tetrahydro-pyrazolo[4,3-c]pyridin-1-yl]-2-hydroxy-propyl}-piperidin-4-yl)-6-chloro-1,3-dihydro-benzoimidazol-2-one] | inhibition | inhibition |  |  | 
2 | Cc1cc(-c2nn(CC(O)CN3CCC(n4c(=O)[nH]c5ccc(Cl)cc54)CC3)c3c2CN(S(C)(=O)=O)CC3)ccc1Cl (stereo not shown) [Example 53, 6-Chloro-1-(1-{3-[3-(4-chloro-3-methyl-phenyl)-5-methanesulfonyl-4,5,6,7-tetrahydro-pyrazolo[4,3-c]pyridin-1-yl]-2-hydroxy-propyl}-piperidin4-yl)-1,3-dihydro-benzoimidazol-2-one] | inhibition |  |  |  | 
3 | CC(C)C[C@H](NC(=O)N1CCOCC1)C(=O)N[C@H](/C=C/S(=O)(=O)c1ccccc1)CCc1ccccc1 [LHVS, 4-morpholinecarboxamide, N-[(1S)-3-methyl-1-[[[(1S, 2E)-1-(2-phenylethyl)-3-(phenylsulfonyl)-2-propenyl]amino]carbonyl]butyl]-] | strongly inhibited; also recorded: inhibition |  | the p10li fragment was seen | strongly inhibited; also recorded: inhibition | not affected
